# Data from patent publication US8895613B2 (priority 2013, dated 2014).
# Biological target: neuraminidase of Oseltamivir resistant virus of A/Vladivostok/16/09 (H1N1) influenza (Influenza A virus, UniProt C3W5S3)
SMILES,more active than A2 by factor,more active than A4 by factor
"CCC(CC)O[C@@H]1C=C(C(=O)O)C[C@H](NC(=N)N)[C@H]1NC(=O)CF [1.1, (3R,4R,5S)-5-guanidino-4-fluoroacetamido-3-(pentan-3-yloxy)cyclohex-1-enecarboxylic acid]",207,250
"CCC(CC)O[C@@H]1C=C(C(=O)O)C[C@H](NC(=N)N)[C@H]1NC(=O)C(F)F [1.4, (3R,4R,5S)-5-guanidino-4-difluoroacetamido-3-(pentan-3-yloxy)cyclohex-1-enecarboxylic acid]",118,140
